Reference: patent publication US7521458B2, “Spiropiperidylrifamycins for the treatment of mycobacterial infections” (priority 2004, dated 2009)

Key:
Format in all cases: cell-based
[1] = test system: Mycobacterium tuberculosis ATCC 35820; assay: Method of the proportions, Table 3 entry 2
[2] = test system: Mycobacterium tuberculosis H37 RV; assay: Method of the proportions, Table 3 entry 5
[3] = test system: Mycobacterium avium-intracellulare complex 5 strains assayed; assay: Method of the proportions, Table 3 entry 11; settings: for MIC: Mycobacterium avium-intracellulare, five strains, all resistant
[4] = test system: Mycobacterium Kansasii 4 strains assayed; assay: Method of the proportions, Table 3 entry 12
[5] = test system: Mycobacterium tuberculosis 3 strains assayed; assay: Method of the proportions, Table 3 entry 9
[6] = test system: Mycobacterium tuberculosis 8 strains assayed; assay: Method of the proportions, Table 3 entry 7
[7] = test system: Mycobacterium tuberculosis 2 strains assayed; assay: Method of the proportions, Table 3 entry 8
[8] = test system: Mycobacterium tuberculosis 1 strain assayed; assay: Method of the proportions, Table 3 entry 10
[9] = test system: Mycobacterium tuberculosis ATCC 35822; assay: Method of the proportions, Table 3 entry 4
[10] = test system: Mycobacterium tuberculosis 38 strains assayed; assay: Method of the proportions, Table 3 entry 6
[11] = test system: Mycobacterium tuberculosis ATCC 35838; assay: Method of the proportions, Table 3 entry 3
[12] = test system: Mycobacterium tuberculosis ATCC 35837; assay: Method of the proportions, Table 3 entry 1
[13] = concentration analysed 0.2 μg/ml
[14] = concentration analysed 25 μg/ml

Compound | Sensitivity of strain (s/R) ([1]; concentration analysed 1 μg/ml) | Sensitivity of strain (s/R) ([2]; concentration analysed 1 μg/ml) | Sensitivity of strains (s/R) ([3]; concentration analysed 1 μg/ml) | Sensitivity of strains (s/R) ([4]; concentration analysed 1 μg/ml) | Sensitivity of strains (s/R) ([5]; concentration analysed 1 μg/ml) | Sensitivity of strains (s/R) ([6]; concentration analysed 1 μg/ml) | Sensitivity of strains (s/R) ([7]; concentration analysed 1 μg/ml) | Sensitivity of strain (s/R) ([8]; concentration analysed 1 μg/ml) | Sensitivity of strain (s/R) ([9]; concentration analysed 1 μg/ml) | Sensitivity of strains (s/R) ([10]; concentration analysed 1 μg/ml) | Sensitivity of strain (s/R) ([11]; concentration analysed 1 μg/ml) | Sensitivity of strain (s/R) ([12]; concentration analysed 1 μg/ml) | further results
4-deoxo-3,4-[(2R)-2-spiro(N-allyl-2,6-diphenyl-4-piperidil)-2,5-dihydro-1H-imidazo]rifamycin S [RFA 7M] | s (s means sensitive) | s (s means sensitive) | R (R means resistent) | s (s means sensitive) | s (s means sensitive) | s (s means sensitive) | s (s means sensitive) | s (s means sensitive) | s (s means sensitive) | s (s means sensitive) | s (s means sensitive) | R (R means resistent) | 
4-deoxo-3,4-[(2R)-2-spiro(N-buthyl-2,6-diphenyl-4-piperidil)-2,5-dihydro-1H-imidazo]rifamycin S [RFA 16M] | s (s means sensitive) | s (s means sensitive) | s/R | s (s means sensitive) | s (s means sensitive) | s (s means sensitive) | s (s means sensitive) | s (s means sensitive) | s (s means sensitive) | s (s means sensitive) | s (s means sensitive) | s (s means sensitive) | 
4-deoxo-3,4-[(2R)-2-spiro(N-homoallyl-2,6-diphenyl-4-piperidil)-2,5-dihydro-1H-imidazo]rifamycin S [RFA 15M] | s (s means sensitive) | s (s means sensitive) | s/R | s (s means sensitive) | s (s means sensitive) | s (s means sensitive) | s (s means sensitive) | s (s means sensitive) | s (s means sensitive) | s (s means sensitive) | s (s means sensitive) | R (R means resistent) | 
4-deoxo-3,4-[(2R)-2-spiro[2,6-bis(4-fluorophenyl)-4-piperidil]-2,5-dihydro-1H-imidazo]rifamycin S [RFA 5M] | s (s means sensitive) | s (s means sensitive) | s (s means sensitive) | s (s means sensitive) | s (s means sensitive) | s (s means sensitive) | s (s means sensitive) | s (s means sensitive) | s (s means sensitive) | s (s means sensitive) | s (s means sensitive) | s (s means sensitive) | 
4-deoxo-3,4-[(2R)-2-spiro[2,6-bis(4-methoxiphenyl)-4-piperidyl]-2,5-dihydro-1H-imidazo]rifamycin S [RFA 4M] | s (s means sensitive) | s (s means sensitive) | s/R | s (s means sensitive) | s (s means sensitive) | s (s means sensitive) | s (s means sensitive) | s (s means sensitive) | s (s means sensitive) | s (s means sensitive) | s (s means sensitive) | s (s means sensitive) | 
CC[C@@H](CO)NCCN[C@@H](CC)CO [EB, ethambutol] |  |  |  |  |  |  |  |  |  |  |  |  | Sensitivity of strain (s/R) ([1]; concentration analysed 5 μg/ml): s (s means sensitive); Sensitivity of strain (s/R) ([2]; concentration analysed 5 μg/ml): s (s means sensitive); Sensitivity of strains (s/R) ([3]; concentration analysed 5 μg/ml): R (R means resistent); Sensitivity of strains (s/R) ([4]; concentration analysed 5 μg/ml): R (R means resistent); Sensitivity of strains (s/R) ([5]; concentration analysed 5 μg/ml): s (s means sensitive); Sensitivity of strains (s/R) ([6]; concentration analysed 5 μg/ml): s (s means sensitive); Sensitivity of strains (s/R) ([7]; concentration analysed 5 μg/ml): s (s means sensitive); Sensitivity of strain (s/R) ([8]; concentration analysed 5 μg/ml): s (s means sensitive); Sensitivity of strain (s/R) ([9]; concentration analysed 5 μg/ml): s (s means sensitive); Sensitivity of strains (s/R) ([10]; concentration analysed 5 μg/ml): s (s means sensitive); Sensitivity of strain (s/R) ([11]; concentration analysed 5 μg/ml): R (R means resistent); Sensitivity of strain (s/R) ([12]; concentration analysed 5 μg/ml): s (s means sensitive)
NNC(=O)c1ccncc1 [IZ, isoniazid] |  |  |  |  |  |  |  |  |  |  |  |  | Sensitivity of strain (s/R) [1, 13]: s (s means sensitive); Sensitivity of strain (s/R) [2, 13]: s (s means sensitive); Sensitivity of strains (s/R) [3, 13]: R (R means resistent); Sensitivity of strains (s/R) [4, 13]: R (R means resistent); Sensitivity of strains (s/R) [5, 13]: s (s means sensitive); Sensitivity of strains (s/R) [6, 13]: s (s means sensitive); Sensitivity of strains (s/R) [7, 13]: R (R means resistent); Sensitivity of strain (s/R) [8, 13]: R (R means resistent); Sensitivity of strain (s/R) [9, 13]: R (R means resistent); Sensitivity of strains (s/R) [10, 13]: s (s means sensitive); Sensitivity of strain (s/R) [11, 13]: s (s means sensitive); Sensitivity of strain (s/R) [12, 13]: s (s means sensitive)
NC(=O)c1cnccn1 [PZ, pyrazinamide] |  |  |  |  |  |  |  |  |  |  |  |  | Sensitivity of strain (s/R) [1, 14]: s (s means sensitive); Sensitivity of strain (s/R) [2, 14]: s (s means sensitive); Sensitivity of strains (s/R) [3, 14]: R (R means resistent); Sensitivity of strains (s/R) [4, 14]: R (R means resistent); Sensitivity of strains (s/R) [5, 14]: s (s means sensitive); Sensitivity of strains (s/R) [6, 14]: R (R means resistent); Sensitivity of strains (s/R) [7, 14]: s (s means sensitive); Sensitivity of strain (s/R) [8, 14]: s (s means sensitive); Sensitivity of strain (s/R) [9, 14]: s (s means sensitive); Sensitivity of strains (s/R) [10, 14]: s (s means sensitive); Sensitivity of strain (s/R) [11, 14]: s (s means sensitive); Sensitivity of strain (s/R) [12, 14]: s (s means sensitive)
CO[C@H]1/C=C/O[C@@]2(C)Oc3c(C)c(O)c4c(c3C2=O)C2=NC3(CCN(CC(C)C)CC3)NC2=C(NC(=O)/C(C)=C\C=C\[C@H](C)[C@H](O)[C@@H](C)[C@@H](O)[C@@H](C)[C@H](OC(C)=O)[C@@H]1C)C4=O [RFB, rifabutin] | s (s means sensitive) | s (s means sensitive) | R (R means resistent) | s (s means sensitive) | s (s means sensitive) | s (s means sensitive) | s (s means sensitive) | s (s means sensitive) | s (s means sensitive) | s (s means sensitive) | s (s means sensitive) | R (R means resistent) | MIC [3]: > 1 µg/mL
CO[C@H]1/C=C/O[C@@]2(C)Oc3c(C)c(O)c4c(O)c(c(/C=N/N5CCN(C)CC5)c(O)c4c3C2=O)NC(=O)/C(C)=C\C=C\[C@H](C)[C@H](O)[C@@H](C)[C@@H](O)[C@@H](C)[C@H](OC(C)=O)[C@@H]1C [RI, rifampicin] | s (s means sensitive) | s (s means sensitive) | R (R means resistent) | s (s means sensitive) | s (s means sensitive) | s (s means sensitive) | s (s means sensitive) | s (s means sensitive) | s (s means sensitive) | s (s means sensitive) | s (s means sensitive) | R (R means resistent) | MIC [3]: > 1 µg/mL
CN[C@@H]1[C@H](O[C@H]2[C@H](O[C@H]3[C@H](O)[C@@H](O)[C@H](N=C(N)N)[C@@H](O)[C@@H]3N=C(N)N)O[C@@H](C)[C@]2(O)C=O)O[C@@H](CO)[C@H](O)[C@H]1O [SM] |  |  |  |  |  |  |  |  |  |  |  |  | Sensitivity of strain (s/R) ([1]; concentration analysed 4 μg/ml): R (R means resistent); Sensitivity of strain (s/R) ([2]; concentration analysed 4 μg/ml): s (s means sensitive); Sensitivity of strains (s/R) ([3]; concentration analysed 4 μg/ml): s/R; Sensitivity of strains (s/R) ([4]; concentration analysed 4 μg/ml): R (R means resistent); Sensitivity of strains (s/R) ([5]; concentration analysed 4 μg/ml): R (R means resistent); Sensitivity of strains (s/R) ([6]; concentration analysed 4 μg/ml): s (s means sensitive); Sensitivity of strains (s/R) ([7]; concentration analysed 4 μg/ml): s (s means sensitive); Sensitivity of strain (s/R) ([8]; concentration analysed 4 μg/ml): R (R means resistent); Sensitivity of strain (s/R) ([9]; concentration analysed 4 μg/ml): s (s means sensitive); Sensitivity of strains (s/R) ([10]; concentration analysed 4 μg/ml): s (s means sensitive); Sensitivity of strain (s/R) ([11]; concentration analysed 4 μg/ml): s (s means sensitive); Sensitivity of strain (s/R) ([12]; concentration analysed 4 μg/ml): s (s means sensitive)
NNC(=O)c1cccs1 [TCH, 2-tiophene hydrazo carboxilic acid] | R (R means resistent) | R (R means resistent) | R (R means resistent) | R (R means resistent) | R (R means resistent) | R (R means resistent) | R (R means resistent) | R (R means resistent) | R (R means resistent) | R (R means resistent) | R (R means resistent) | R (R means resistent) | 
